{"source": "PubChem BioAssay AID602215", "about": "(Sanford-Burnham Center for Chemical Genomics, 2012)", "note": "Activity calls are given as the source filed them.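 How the source made its calls: active means IC50 of 20 µM or lower; inactive means the rest.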", "data": [{"test_system": "HL-1 cardiomyocytes, H2O2 injury, ATP luminescence, 2 h", "test": "protection of HL-1 cardiomyocytes from peroxide injury, dose response, cell-based, ATP luminescence (AID 602215);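 further: potency is for protection so actives raise ATP signal against peroxide damage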", "values": [{"smiles": "COc1ccc(-c2cnc3c(NC=O)cc(-c4cccc(NS(C)(=O)=O)c4)cn23)cc1OC", "IC50": "6.15 µM"}, {"smiles": "NC(=O)c1nsc(C(=O)N(c2ccccc2F)C(C(=O)NCc2ccc(F)cc2)c2ccc(O)cc2)c1N", "note": "(configuration not stated)", "IC50": "> 79 µM (inactive)"}, {"smiles": "COc1ccc(C(C(=O)NC2CCCC2)N(C(=O)c2snc(C(N)=O)c2N)c2cccc(O)c2)cc1", "note": "(configuration not stated)", "IC50": "23.9 µM (inactive)"}, {"smiles": "Cc1ccc(-c2csc(N3CCC[C@@H]3C(=O)NCCn3c(-c4ccncc4)nc4ccccc43)n2)cc1", "IC50": "> 79 µM (inactive)"}, {"smiles": "O=C(N/N=C/c1ccccn1)c1cc(-c2cccc3ccccc23)n[nH]1", "IC50": "> 79 µM (inactive)"}, {"smiles": "CC(=O)c1ccc(-c2cnc3c(NC=O)cc(-c4cccc(C(=O)N(C)C)c4)cn23)cc1", "IC50": "12 µM"}, {"smiles": "COc1cc(NC(=O)c2cc3ccccc3cc2OC)ccc1NC(=O)c1cccs1", "IC50": "4.22 µM"}, {"smiles": "COc1ccccc1NC(=O)c1cc(-c2cc(OC)c(OC)c(OC)c2)nc2ccccc12", "IC50": "13.4 µM"}, {"smiles": "CCOC(=O)C1CCN(c2cc3c(cc2NC(=O)c2ccccc2)n(C)c(=O)n3C)CC1", "IC50": "> 79 µM (inactive)"}, {"smiles": "NC(=O)c1nsc(C(=O)N(c2ccccc2)C(C(=O)NC2CCCC2)c2ccc3ncccc3c2)c1N", "note": "(configuration not stated)", "IC50": "5.51 µM"}, {"smiles": "COCCN1Cc2cccc(C(=O)Nc3cccc(-c4nc5ccccc5[nH]4)c3)c2C1=O", "IC50": "> 79 µM (inactive)"}, {"smiles": "COc1ccc(-c2csc(NC(=O)c3cccc(N4C(=O)CCC4=O)c3)n2)cc1OC", "IC50": "> 79 µM (inactive)"}, {"smiles": "CCOC(=O)C(Cc1ccc(NC(=O)/C(=C/c2ccc(OC(C)=O)cc2)NC(C)=O)cc1)N1C(=O)c2ccccc2C1=O", "note": "(configuration not stated)", "IC50": "32.5 µM (inactive)"}, {"smiles": "CCN(CC)C(=O)c1[nH]cnc1C(=O)NCC(=O)OCc1ccccc1", "IC50": "> 79 µM (inactive)"}, {"smiles": "CC(=O)Nc1cccc(-c2cc(NC=O)c3ncc(-c4ccc(C(C)=O)cc4)n3c2)c1", "IC50": "6.11 µM"}, {"smiles": "O=C(c1ccc(-c2nc3ccccc3s2)o1)N1CCN(c2ccccc2O)CC1", "IC50": "> 79 µM (inactive)"}, {"smiles": "CCOc1ccccc1Nc1nnc(SCc2nnc(-c3cc(OC)c(OC)c(OC)c3)o2)s1", "IC50": "10 µM"}, {"smiles": "O=C(Nc1ccccc1)c1nc[nH]c1C(=O)NCCCCCCNC(=O)c1[nH]cnc1C(=O)Nc1ccccc1", "IC50": "3.45 µM"}, {"smiles": "O=C(COC(=O)c1c2c(nc3ccccc13)/C(=C/c1cccc([N+](=O)[O-])c1)CCC2)NC1CCS(=O)(=O)C1", "note": "(configuration not stated)", "IC50": "> 79 µM (inactive)"}, {"smiles": "COc1cccc(-c2cnc3c(NC=O)cc(-c4cc(C)c(O)c(C)c4)cn23)c1", "IC50": "4.55 µM"}, {"smiles": "CCOC(=O)c1ccc(NC(=O)c2nc[nH]c2C(=O)NCCCCCNC(=O)OC(C)(C)C)cc1", "IC50": "> 79 µM (inactive)"}, {"smiles": "COc1cccc(C(=O)Nc2c(C(N)=O)oc3ccccc23)c1", "IC50": "27.6 µM (inactive)"}, {"smiles": "COc1ccc(C(=O)Nc2cccc(NC(=O)c3ccc(OC)c(OC)c3)n2)cc1OC", "IC50": "> 79 µM (inactive)"}, {"smiles": "COc1cc(-c2cc(NC=O)c3ncc(-c4ccc(C(C)=O)cc4)n3c2)cc(OC)c1OC", "IC50": "4.1 µM"}, {"smiles": "Cc1cc(N)n(-c2nc(-c3cccnc3)nc3ccccc23)n1", "IC50": "> 79 µM (inactive)"}, {"smiles": "Cc1cc(C)c(C)c(S(=O)(=O)N2CCN(C(=O)c3cc(=O)[nH]c4ccccc34)CC2)c1C", "IC50": "18.9 µM"}, {"smiles": "COc1cccc(-c2cnc3c(NC=O)cc(-c4ccc(O)c(OC)c4)cn23)c1", "IC50": "> 79 µM (inactive)"}, {"smiles": "COc1ccccc1CN(C(=O)CNC(=O)c1ccco1)C(C(=O)NCC1CCCO1)c1ccccc1", "note": "(configuration not stated)", "IC50": "> 79 µM (inactive)"}, {"smiles": "COc1cc(C(=O)N/N=C/c2ccc(OC(=O)c3ccccc3)c(OC)c2)ccc1O", "IC50": "> 79 µM (inactive)"}, {"smiles": "O=C1OCCN1C(=O)[C@H]1[C@H](c2ccc([N+](=O)[O-])cc2)C(c2ccc(F)cc2)=NN1c1ccc(Br)cc1", "IC50": "> 79 µM (inactive)"}, {"smiles": "CCOc1ncccc1C(=O)Nc1cccc(-c2nc3cccnc3s2)c1", "IC50": "> 79 µM (inactive)"}, {"smiles": "CCN1C(=O)/C(=C/c2nc3ccccc3c(=O)[nH]2)c2ccccc21", "IC50": "5.41 µM"}, {"smiles": "COc1ccc(-c2cc(-c3nnc(COC(=O)c4ccncc4)o3)c3ccccc3n2)cc1OC", "IC50": "> 79 µM (inactive)"}, {"smiles": "CNC(=O)c1ccc(-c2sc3nc(N4CCOCC4)c4c(c3c2N)CC(C)(C)OC4)o1", "IC50": "1.84 µM"}, {"smiles": "CC(C)(C)OC(=O)C[C@@H]1C/C=C\\C[C@@H](CC(=O)N[C@@H](CO)Cc2ccccc2)C(=O)NC[C@@H](c2ccccc2)OC1=O", "IC50": "> 79 µM (inactive)"}, {"smiles": "C=CCOC(=O)C1=C[C@H](c2cn(C(C)=O)c3ccccc23)C[C@H](OCc2ccc(CO)cc2)O1", "IC50": "> 79 µM (inactive)"}, {"smiles": "Cc1ccc(C)c(NC(=O)C(Sc2nc3ccccc3c(=O)n2CC(C)C)c2ccccc2)c1", "note": "(configuration not stated)", "IC50": "> 79 µM (inactive)"}, {"smiles": "CCOc1ccc(C(C(=O)NC2CCCC2)N(C(=O)c2snc(C(N)=O)c2N)c2cccc(O)c2)cc1", "note": "(configuration not stated)", "IC50": "4.32 µM"}, {"smiles": "COc1ccc(-c2cc(C(=O)Nc3ccccc3N3CCOCC3)c3ccccc3n2)cc1OC", "IC50": "4.35 µM"}, {"smiles": "Fc1ccc(-n2cc(-c3ccccc3)c3c(N4CCOCC4)ncnc32)cc1", "IC50": "> 79 µM (inactive)"}, {"smiles": "COc1ccc(-c2cc(-c3nnc(COC(=O)C4CC4)o3)c3ccccc3n2)cc1OC", "IC50": "> 79 µM (inactive)"}, {"smiles": "COc1cccc(-c2cnc3c(NC(C)=O)cc(-c4cccc(NS(C)(=O)=O)c4)cn23)c1", "IC50": "6.83 µM"}, {"smiles": "CC(C)OCCCNC(=O)CCC(=O)NNc1nc2ccccc2c2nc(-c3ccccc3)nn12", "IC50": "> 79 µM (inactive)"}, {"smiles": "COc1cc(CN2C[C@@H](CO)O[C@@H](n3cnc4c(Nc5ccccc5)ncnc43)C2)cc(OC)c1OC", "IC50": "20.5 µM (inactive)"}, {"smiles": "CCCn1nc(C(=O)Nc2nc(-c3ccccn3)cs2)c2ccccc2c1=O", "IC50": "7.02 µM"}, {"smiles": "COc1ccc(Nc2nc(C(=O)N3CCc4cc(OC)c(OC)cc4C3)cs2)cc1", "IC50": "8.5 µM"}, {"smiles": "NC(=O)c1nsc(C(=O)N(c2ccccc2F)C(C(=O)NCc2ccccc2)c2ccc(O)cc2)c1N", "note": "(configuration not stated)", "IC50": "15.8 µM"}, {"smiles": "CC(C)c1ccccc1NC(=O)COC(=O)c1c2c(nc3ccccc13)CCN(Cc1ccccc1)C2", "IC50": "41.4 µM (inactive)"}, {"smiles": "COc1ccccc1NC(=O)c1cc(-c2ccc(OC)c(OC)c2)nc2ccccc12", "IC50": "> 79 µM (inactive)"}, {"smiles": "O=C(C(=O)N(Cc1ccccc1)Cc1ccccc1)c1c(-c2ccccc2)[nH]c2ccccc12", "IC50": "> 79 µM (inactive)"}, {"smiles": "Cc1ccc(C(C(=O)NCc2ccccc2)N(Cc2ccco2)C(=O)c2snc(C(N)=O)c2N)o1", "note": "(configuration not stated)", "IC50": "> 79 µM (inactive)"}, {"smiles": "CC(C)(C)NC(=O)COC(=O)c1c2c(nc3ccccc13)CCC2", "IC50": "49.1 µM (inactive)"}, {"smiles": "COC(=O)c1cc2c(-c3ccccc3)cc3ccccn3c-2c1C(=O)OC", "IC50": "> 79 µM (inactive)"}, {"smiles": "COc1cc(-c2cnc3c(NC=O)cc(-c4cccnc4)cn23)cc(OC)c1OC", "IC50": "16.9 µM"}, {"smiles": "COc1ccc(COc2cc(-c3cccc(OC)c3)nc3ccc(NC(=O)c4cccnc4)cc23)cc1", "IC50": "4.53 µM"}, {"smiles": "COc1ccc(C(C(=O)NCc2ccccc2)N(Cc2ccco2)C(=O)c2snc(C(N)=O)c2N)cc1", "note": "(configuration not stated)", "IC50": "44.1 µM (inactive)"}, {"smiles": "CC(=O)Nc1cc(-c2ccc(C(=O)NC3CC3)cc2)cn2c(-c3cccc(C(C)=O)c3)cnc12", "IC50": "> 79 µM (inactive)"}, {"smiles": "COc1ccc(CCNc2nc(-c3cccnc3)nc3ccccc23)cc1OC", "IC50": "> 79 µM (inactive)"}, {"smiles": "CC(=O)Nc1ccc(S(=O)(=O)N(Cc2cccnc2)Cc2cc3ccccc3[nH]c2=O)cc1", "IC50": "11.7 µM"}, {"smiles": "CCN(CC(=O)Nc1ccc(OC)cc1)C(=O)c1cc(-c2cccs2)nn1-c1ccccc1", "IC50": "> 79 µM (inactive)"}, {"smiles": "COc1ccccc1N1CCN(C(=O)c2ccc3nc(-c4ccco4)c(-c4ccco4)nc3c2)CC1", "IC50": "> 79 µM (inactive)"}, {"smiles": "O=C(Nc1ccccc1)c1nc[nH]c1C(=O)NCCNC(=O)c1[nH]cnc1C(=O)Nc1ccccc1", "IC50": "> 79 µM (inactive)"}, {"smiles": "C=CCn1cnc2c(c1=O)c1nc3ccccc3nc1n2/N=C/c1cc(OC)c(OC)c(OC)c1", "IC50": "> 79 µM (inactive)"}, {"smiles": "O=C(Nc1ccccc1)c1nc[nH]c1C(=O)NCCCCNC(=O)c1[nH]cnc1C(=O)Nc1ccccc1", "IC50": "39.6 µM (inactive)"}, {"smiles": "COc1ccccc1OP(=O)(Nc1cccnc1)Oc1ccccc1OC", "IC50": "> 79 µM (inactive)"}, {"smiles": "CCOc1cc(-c2cc(-c3ccc(N)cc3)nc(N)c2C#N)ccc1O", "IC50": "> 79 µM (inactive)"}, {"smiles": "CC(=O)Nc1ccc(Nc2nc(-c3sc(NC(C)=O)nc3C)cs2)cc1", "IC50": "20.1 µM (inactive)"}, {"smiles": "COc1ccc(OC)c(/C=N/NC(=O)c2cc3c(OC)c(OC)ccc3[nH]2)c1", "IC50": "1.82 µM"}, {"smiles": "COc1cc2[nH]c(=O)n3nc(-c4ccccc4)nc3c2cc1OC", "IC50": "> 79 µM (inactive)"}, {"smiles": "CC1Nc2ncnc(N3CCN(c4ccccc4)CC3)c2N(Cc2ccc(Cl)cc2)C1=O", "note": "(configuration not stated)", "IC50": "> 79 µM (inactive)"}, {"smiles": "NC(=O)c1nsc(C(=O)N(c2ccccc2)C(C(=O)NCc2ccc(F)cc2)c2ccc(O)cc2)c1N", "note": "(configuration not stated)", "IC50": "> 79 µM (inactive)"}, {"smiles": "Nc1c(C(=O)N/N=C/c2cccnc2)oc2nc(-c3ccco3)cc(-c3ccco3)c12", "IC50": "> 79 µM (inactive)"}, {"smiles": "COc1ccc(CCNC(=O)C(=O)NCC2CCCN2S(=O)(=O)c2ccccc2)cc1OC", "note": "(configuration not stated)", "IC50": "> 79 µM (inactive)"}, {"smiles": "O=S(=O)(c1ccccc1)N1CCN(c2nc(-c3cccnc3)nc3ccccc23)CC1", "IC50": "> 79 µM (inactive)"}, {"smiles": "CC(=O)Nc1cccc(-c2cc(NC(C)=O)c3ncc(-c4ccccc4)n3c2)c1", "IC50": "> 79 µM (inactive)"}, {"smiles": "COc1nc(N/N=C/c2cc3c(cc2Br)OCO3)nc(N2CCOCC2)n1", "IC50": "> 79 µM (inactive)"}, {"smiles": "COc1cc(-c2cc(C(=O)Nc3cccc(C(C)=O)c3)c3ccccc3n2)cc(OC)c1OC", "IC50": "3.99 µM"}, {"smiles": "CC(=O)c1ccc(-c2cnc3c(NC=O)cc(-c4ccc(C(=O)NC5CC5)cc4)cn23)cc1", "IC50": "> 79 µM (inactive)"}, {"smiles": "Cn1c(=O)c2[nH]c(NN=Cc3ccc(Br)cc3)nc2n(C)c1=O", "IC50": "> 79 µM (inactive)"}, {"smiles": "Nc1c(C(=O)N/N=C/c2cccnc2)oc2nc(-c3ccccc3)cc(-c3ccco3)c12", "IC50": "> 79 µM (inactive)"}, {"smiles": "COc1ccc(Nc2nnc(SCc3cc(=O)n4ccsc4n3)s2)cc1", "IC50": "> 79 µM (inactive)"}, {"smiles": "CCc1nc2ccc(C(=O)Nc3cc(-c4ccccc4)ccc3OC)cn2c1N(C)Cc1nccs1", "IC50": "> 79 µM (inactive)"}, {"smiles": "O=C(CNC(=O)c1[nH]cnc1C(=O)NC(c1ccccc1)c1ccccc1)OCc1ccccc1", "IC50": "69.7 µM (inactive)"}, {"smiles": "COc1ccc2c(c1OC)C(=O)N1c3ccccc3C(=O)N(c3ccccc3)C21", "note": "(configuration not stated)", "IC50": "> 79 µM (inactive)"}, {"smiles": "CCOC(=O)C1CCN(c2cc3c(cc2NC(=O)c2ccc(OC)c(OC)c2)n(C)c(=O)n3C)CC1", "IC50": "> 79 µM (inactive)"}, {"smiles": "COc1cccc(/C=N/NC(=O)c2oc3nc(-c4ccccc4)cc(-c4ccco4)c3c2N)c1", "IC50": "> 79 µM (inactive)"}, {"smiles": "COc1ccc(-n2c(/C=C/c3ccc(O)c(OC)c3)nc3ccccc3c2=O)cc1", "IC50": "12.1 µM"}]}]}
